From patent US20260000766A1, “ULTRASOUND OPTOGENETIC COMPOSITIONS AND METHODS” (BOARD OF REGENTS, THE UNIVERSITY OF TEXAS SYSTEM, priority 2022, published 2026)

Experiment: Fluorescence spectrum tests of L012 at different pH and H2O2 concentration
Format: physicochemical
Procedure: The fluorescence spectrum tests of L012 at different pH and H2O2 concentration. the quantum yield of the L012 solution at different Ph was investigated. 1 mL L012 solution (0.5 mg/mL) with pH 7.4, 8.5, and 10.0 was mixed with H2O2, where the final concentration of H2O2 was 250 μM. The fluorescence spectrum was recorded via Fluorolog3 Fluorometer. In addition, we also investigated the quantum yield of the L012 solution with different H2O2 concentrations at pH 7.4. 1 mL L012 solution (0.5 mg/mL) with different H2O2 concentrations (50, 250, and 500 μM) at pH 7.4 was prepared at first, and the fluorescence spectrum was also recorded via Fluorolog3 Fluorometer.

improvement of fluorescence intensity (H2O2 concentration increased from 50 to 500 μM): around four | increase of fluorescence intensity (pH changed from 7.4 to 10): around 30%
SMILES: Nc1c(-c2ccccc2)nc(Cl)c2c([O-])n[nH]c(=O)c12.[Na+] [L012, L012 sodium salt]
